Data taken from PMC5601360 (Journal of Medicinal Chemistry, 2017).

Legend:
human DOP receptor = target: T1, human DOP receptor (Homo sapiens, UniProt P41143); assay: Competition binding assay, CHO-hDOP cell membranes, [3H]diprenorphine; conditions: mean ± SEM, read-out: receptor binding affinity Ki DOP
T1 construct: expressed in transfected cells; host or cells: CHO-hDOP cells (gift of Dr. Lawrence Toll, SRI International)
Experimental: (§1) CHO cells stably expressing recombinant human KOP, MOP, or DOP receptors (CHO-hKOP, CHO-hMOP, and CHO-hDOP cell lines) were kindly provided by Dr. Lawrence Toll (SRI International, Menlo Park, CA). The CHO-hKOP cell line was maintained in Dulbecco’s Minimal Essential Medium (DMEM) supplemented with fetal bovine serum (FBS, 10%), penicillin/streptomycin (0.1%), L-glutamine (2 mM), and geneticin (400 μg/mL). The CHO-hMOP and CHO-hDOP cell lines were maintained in DMEM/Ham’s F-12 medium supplemented with FBS (10%), penicillin/streptomycin (0.1%), L-glutamine (2 mM), and geneticin (400 μg/mL). Cell cultures were maintained at 37 °C in 5% CO2 humidified air.
(§2) . Nonspecific binding was determined using 1–10 μM of the unlabeled counterpart of each radioligand. Assays were performed in 50 mM Tris-HCl buffer (pH 7.4) in a final volume of 1 mL. Cell membranes (15–20 μg) were incubated with the appropriate radioligand and various concentrations of test compound for 60 min at 25 °C. After incubation, reactions were terminated by rapid filtration through Whatman glass fiber filters. Filters were washed three times with 5 mL of ice-cold 50 mM Tris-HCl buffer (pH 7.4) using a Brandel M24R cell harvester (Gaithersburg, MD). Radioactivity retained on the filters was counted by liquid scintillation counting using a Beckman Coulter LS6500 (Beckman Coulter Inc., Fullerton, CA). All binding experiments were performed in duplicate and repeated at least three times. The inhibitory constant Ki values (in nM) were calculated from the competition binding curves by nonlinear regression analysis and the Cheng–Prusoff equation.[16]

human KOP receptor [1] = target: T2, human KOP receptor (Homo sapiens, UniProt P41145); assay: Competition binding assay, CHO-hKOP cell membranes, [3H]U69,593; conditions: for Ki: CHO-hKOP membranes, mean ± SEM, read-out: receptor binding affinity Ki KOP; for selectivity DOP/KOP: Ki ratio DOP/KOP; for selectivity MOP/KOP: Ki ratio MOP/KOP
T2 construct: expressed in transfected cells; host or cells: CHO-hKOP cells (gift of Dr. Lawrence Toll, SRI International)
Experimental: as §1
as §2, with “Nonspecific” for “. Nonspecific”

[2] = tested on: acetic acid-induced writhing in CD1 mice; assay: Acetic acid-induced writhing assay in mice after sc administration; format: in vivo; conditions: for ED50: Mus musculus, 0.5 h, CD1 mice, inhibition of writhing at 30 min after drug administration, read-out: antinociceptive ED50 (95% CI); for antagonism by nor-BNI of the antinociceptive effect: nor-BNI 20 mg/kg sc 24 h before agonist (2: 5 mg/kg; 3: 1 mg/kg; 4: […] sc)
Experimental: Male CD1 mice (30–35 g, 6–8 weeks old) were obtained from the Center of Biomodels and Experimental Medicine (CBEM) (Innsbruck, Austria) or Charles River (Sulzfeld, Germany). Mice were group-housed in a temperature controlled room with a 12 h light/dark cycle and with free access to food and water. All animal studies were conducted in accordance with ethical guidelines and animal welfare standards according to Austrian regulations for animal research and were approved by the Committee of Animal Care of the Austrian Federal Ministry of Science and Research. Solutions of test compounds were prepared as 1% DMSO solutions in sterile physiological 0.9% saline and further diluted to working doses in saline solution. Test compounds or vehicle (saline) were administered by sc route in a volume of 10 μL/1 g of body weight. All doses are expressed in terms of salts. Separate groups of mice received the respective dose of compound, and individual mice were only used once for behavioral testing. Each experimental group included at least five animals.
Writhing was induced in male CD1 mice by intraperitoneal (ip) injection of a 0.6% acetic acid aqueous solution as described previously.[9a] Groups of mice were administered sc different doses of test compound or saline (control), and then 5 min prior to testing (25 min after drug or saline) each animal received an ip injection of acetic acid solution. Each mouse was placed in individual transparent Plexiglas chambers, and the number of writhes was counted during a 10 min observation period. […] For the antagonism studies, nor-BNI (20 mg/kg) was sc administered 24 h before 2 (5 mg/kg) and 17 (10 mg/kg) was sc administered 15 min before U50,488 (2 mg/kg).

human KOP receptor [3] = target: T2, human KOP receptor; assay: [35S]GTPγS binding assay using CHO-hKOP cell membranes; format: biochemical; conditions: for EC50: CHO-hKOP membranes, mean ± SEM; for Emax: read-out: [35S]GTPγS KOP % stim
Experimental: The binding of [^35S]GTPγS to membranes from CHO cells stably expressing human KOP receptors (CHO-hKOP cells) was conducted according to the published procedures.[9a],[9b] CHO-hKOP cell membranes were prepared in buffer A (20 mM HEPES, 10 mM MgCl2, and 100 mM NaCl, pH 7.4). Cell membranes (8–15 μg) in buffer A were incubated with 0.05 nM [^35S]GTPγS, 10 μM GDP, and various concentrations of test compound in a final volume of 1 mL for 60 min at 25 °C. Nonspecific binding was determined using 10 μM GTPγS, and the basal binding was determined in the absence of test ligand. Samples are filtered over glass fiber filters and counted as described for binding assays. […] To determine the KOP antagonist activity, a concentration–response curve for U69,593 was obtained by assessing the [^35S]GTPγS binding to CHO-hKOP cell membranes in the presence or absence of test compound, as previously described.[9b] For each compound, the Schild analysis was conducted, utilizing a full agonist–dose response curve in the presence of at least two concentrations of the antagonist. The equilibrium dissociation constant (Ke) was calculated from the equation Ke = [a]/(DR – 1), where “a” is the concentration of antagonist and DR the virtual shift of the agonist concentration–response curve to the right in the presence of a given concentration of antagonist. All experiments were performed in duplicate and repeated at least three times.

human MOP receptor = target: T3, human MOP receptor (Homo sapiens, UniProt P35372); assay: Competition binding assay, CHO-hMOP cell membranes, [3H]DAMGO; conditions: mean ± SEM, read-out: receptor binding affinity Ki MOP
T3 construct: expressed in transfected cells; host or cells: CHO-hMOP cells (gift of Dr. Lawrence Toll, SRI International)
Experimental: as §1, §2

CD1 mice = conditions: mouse, in vivo, sc, 7.5 mg/kg
[4] = percentage stimulation relative to the KOP full agonist U69,593

| Compound | Ki (human DOP receptor) | Ki (human KOP receptor [1]) | selectivity DOP/KOP (human KOP receptor [1]) | selectivity MOP/KOP (human KOP receptor [1]) | ED50 ([2]; sc) | EC50 (human KOP receptor [3]) | Emax (human KOP receptor [3]; [4]) | Ki (human MOP receptor) | effect on rotarod latencies (motor behavior) (CD1 mice) | other results |
| --- | --- | --- | --- | --- | --- | --- | --- | --- | --- | --- |
| Cl.Oc1cccc(CCN(CCc2ccccc2)CC2CCCC2)c1 [Compound 3, 3-[2-[(Cyclopentylmethyl)(phenethyl)amino]ethyl]phenol Hydrochloride] | 2270 ± 625 nM | 0.017 ± 0.002 nM | 133471 | 16118 | 0.49 mg/kg | 3.87 ± 1.44 nM | ≥ 80% | 274 ± 20 nM | no significant alterations in rotarod latencies | antagonism by nor-BNI of the antinociceptive effect [2]: antagonized by the KOP antagonist nor-BNI; increase in antinociceptive potency vs U50,488 ([2]; sc, ED50 comparison): about 3 fold; increase in antinociceptive potency vs compound 1 ([2]; sc, ED50 comparison): 4 fold; increase in antinociceptive potency vs compound 2 ([2]; sc, ED50 comparison): 7 fold |
| Cl.Oc1cccc(CCN(CCc2ccccc2)CC2CCCCC2)c1 [Compound 4, 3-[2-[(Cyclohexylmethyl)(phenethyl)amino]ethyl]phenol Hydrochloride] | 2140 ± 346 nM | 0.061 ± 0.027 nM | 35066 | 8803 | 1.01 mg/kg | 0.23 ± 0.08 nM | 61.9% | 537 ± 172 nM | no significant alterations in rotarod latencies | antagonism by nor-BNI of the antinociceptive effect [2]: antagonized by the KOP antagonist nor-BNI; reduction in antinociceptive potency vs compound 3 ([2]; sc, ED50 comparison): about 2 fold; increase in agonist potency vs compound 1 (human KOP receptor [3]; EC50 comparison): 16 fold; [35S]GTPγS KOP % stim (human KOP receptor [3]; [4]): 61.9 ± 8.1% |
| Cl.Oc1ccc(CCN(CCc2cccc(O)c2)CC2CCC2)cc1 [Compound 14, 3-[2-[(Cyclobutylmethyl)(4-hydroxyphenethyl)amino]ethyl]phenol Hydrochloride] | 428 ± 93 nM | 3.43 ± 0.75 nM | 125 | 5 | 1.73 mg/kg | 22.2 ± 3.6 nM | 76.4 ± 1.1% | 16.1 ± 4.7 nM | – | – |
| Cl.Oc1ccc(CCN(CCc2cccc(O)c2)CC2CCCCC2)cc1 [Compound 15, 3-[2-[(Cyclohexylmethyl)(4-hydroxyphenethyl)amino]ethyl]phenol Hydrochloride] | 1640 ± 557 nM | 1.85 ± 0.07 nM | – | – | 1.9 mg/kg | 22.2 ± 7.2 nM | ≥ 80% | 234 ± 112 nM | – | – |
| Cl.Oc1ccc(CCN(CCc2cccc(O)c2)CC2CC2)cc1 [Compound 17, 3-[2-[(Cyclopropylmethyl)(4-hydroxyphenethyl)amino]ethyl]phenol Hydrochloride] | > 10000 nM | 3.56 ± 0.94 nM | >2800 | 129 | – | – | – | 460 ± 127 nM | – | agonist activity in vivo (effect on pain behavior alone) ([2]; 10 mg/kg sc, compared to control mice): did not affect pain behavior; antagonism of U50,488-induced antinociception ([2]; 17 10 mg/kg sc 15 min before U50,488 2 mg/kg sc): complete reversal of U50,488-induced analgesia; Kd (human KOP receptor [3]; antagonist Ke at the KOP receptor against U69,593): 24.3 ± 1.5 nM; functional activity profile at the KOP receptor (human KOP receptor [3]; in vitro, [35S]GTPγS): KOP antagonism |
| Cl.Oc1cccc(CCN(CCc2ccccc2)CC2CCC2)c1F [Compound 18, 3-[2-[(Cyclobutylmethyl)(phenethyl)amino]ethyl]-2-fluorophenol Hydrochloride] | > 10000 nM | 0.072 ± 0.027 nM | >138000 | 5529 | 2.64 mg/kg | 6.9 ± 3.35 nM | 71.4% | 398 ± 57 nM | no significant alterations in rotarod latencies | – |
| Cl.Oc1cccc(CCN(CCc2cccc(O)c2F)CC2CCC2)c1 [Compound 20, 3-[2-[(Cyclobutylmethyl)(3-hydroxyphenethyl)amino]ethyl]-2-fluorophenol Hydrochloride] | > 10000 nM | 0.12 ± 0.01 nM | >83000 | 4642 | 2.25 mg/kg | 1.49 ± 0.04 nM | 57.5 ± 4.4% | 557 ± 198 nM | – | increase in KOP affinity vs compound 8 (human KOP receptor [1]; Ki comparison): about 3 fold |
| Cl.Oc1ccc(CCN(CCc2cccc(O)c2F)CC2CCC2)cc1 [Compound 21, 3-[2-[(Cyclobutylmethyl)(4-hydroxyphenethyl)amino]ethyl]-2-fluorophenol Hydrochloride] | 1310 ± 281 nM | 3.37 ± 1.54 nM | 389 | 155 | 2.14 mg/kg | 36.7 ± 14 nM | 69.1 ± 1.9% | 523 ± 33 nM | – | increase in selectivity KOP vs DOP compared to compound 14 (human KOP receptor [1]; selectivity ratio comparison): 3 fold; increase in selectivity KOP vs MOP compared to compound 14 (human KOP receptor [1]; selectivity ratio comparison): 31 fold |
